In article PMC9041313 (RSC Advances, 2021):

Molecular target: T1, human MAGL (hMAGL) (Homo sapiens, UniProt Q99685)
T1 sequence (Q99685 1-303): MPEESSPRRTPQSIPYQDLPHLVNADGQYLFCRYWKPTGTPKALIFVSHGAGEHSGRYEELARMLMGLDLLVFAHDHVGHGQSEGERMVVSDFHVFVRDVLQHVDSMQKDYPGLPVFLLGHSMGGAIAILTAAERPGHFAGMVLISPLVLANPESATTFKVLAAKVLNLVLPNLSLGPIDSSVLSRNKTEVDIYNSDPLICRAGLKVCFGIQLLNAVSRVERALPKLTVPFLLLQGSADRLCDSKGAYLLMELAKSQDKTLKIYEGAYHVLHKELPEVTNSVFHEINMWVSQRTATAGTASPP
Test: Human MAGL assay
Format: biochemical
Details: 10 μM compound concentration

Substance: 8-prenylnaringenin [NP-2]
- inhibition% against hMAGL: over 40%
